{"source": "patent US9676732B2", "about": "“Ethynyl derivatives” (Hoffmann-La Roche Inc., priority 2013, dated 2017)", "biological_target": "human mGlu4 receptor (Homo sapiens (Human), UniProt Q14833)", "sequence (Q14833 33-912)": "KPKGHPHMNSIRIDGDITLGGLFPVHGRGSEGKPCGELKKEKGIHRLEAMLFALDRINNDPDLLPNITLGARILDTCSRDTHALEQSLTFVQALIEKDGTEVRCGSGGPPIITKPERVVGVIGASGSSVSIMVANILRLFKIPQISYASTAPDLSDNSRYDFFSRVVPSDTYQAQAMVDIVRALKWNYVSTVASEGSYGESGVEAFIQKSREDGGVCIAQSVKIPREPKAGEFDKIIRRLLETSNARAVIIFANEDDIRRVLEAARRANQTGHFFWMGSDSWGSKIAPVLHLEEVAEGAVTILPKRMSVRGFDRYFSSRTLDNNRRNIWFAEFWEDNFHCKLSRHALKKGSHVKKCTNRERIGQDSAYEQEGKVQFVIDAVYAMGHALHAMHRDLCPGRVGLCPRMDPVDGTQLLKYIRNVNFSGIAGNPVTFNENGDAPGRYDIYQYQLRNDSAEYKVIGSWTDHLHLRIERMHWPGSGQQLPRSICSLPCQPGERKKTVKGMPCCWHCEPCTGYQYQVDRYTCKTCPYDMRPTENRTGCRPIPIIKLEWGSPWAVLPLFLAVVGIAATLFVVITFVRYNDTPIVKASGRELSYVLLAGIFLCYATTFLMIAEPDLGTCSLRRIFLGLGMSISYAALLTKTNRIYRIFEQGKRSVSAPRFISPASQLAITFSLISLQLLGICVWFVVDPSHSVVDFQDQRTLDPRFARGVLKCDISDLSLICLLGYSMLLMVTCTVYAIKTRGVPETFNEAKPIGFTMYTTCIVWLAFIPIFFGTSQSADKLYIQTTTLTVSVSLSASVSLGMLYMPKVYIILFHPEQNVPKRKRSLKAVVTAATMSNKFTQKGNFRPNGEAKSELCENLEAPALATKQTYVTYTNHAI", "assay": "Ca2+ mobilization in vitro assay on recombinant human mGlu4 expressed in HEK293 cells (mGlu4 PAM)", "type": "cell-based", "settings": "for Eff. (%): maximal response in % of the maximal stimulatory effect obtained with saturating concentrations of L-AP4; for EC50: HEK293 cells stably expressing human mGlu4, L-AP4 added at EC20, read-out: EC50 (nM) mGlu4PAM", "experimental": "Determination of EC50 Values Using a Ca2+ Mobilization In Vitro Assay on Recombinant Human mGlu4 Expressed in HEK293 Cells:\nA monoclonal HEK-293 cell line stably transfected with a cDNA encoding for the human mGlu4 receptor was generated; for the work with mGlu4 Positive Allosteric Modulators (PAMs), a cell line with low receptor expression levels and low constitutive receptor activity was selected to allow the differentiation of agonistic versus PAM activity. Cells were cultured according to standard protocols (Freshney, 2000) in Dulbecco's Modified Eagle Medium with high glucose supplemented with 1 mM glutamine, 10% (vol/vol) heat-inactivated bovine calf serum, Penicillin/Streptomycin, 50 μg/ml hygromycin and 15 μg/ml blasticidin (all cell culture reagents and antibiotics from Invitrogen, Basel, Switzerland).\nAbout 24 hrs before an experiment, 5×10^4 cells/well were seeded in poly-D-lysine coated, black/clear-bottomed 96-well plates. The cells were loaded with 2.5 μM Fluo-4AM in loading buffer (1×HBSS, 20 mM HEPES) for 1 hr at 37° C. and washed five times with loading buffer. The cells were transferred into a Functional Drug Screening System 7000 (Hamamatsu, Paris, France), and 11 half logarithmic serial dilutions of test compound at 37° C. were added and the cells were incubated for 10-30 min. with on-line recording of fluorescence. Following this pre-incubation step, the agonist (2S)-2-amino-4-phosphonobutanoic acid (L-AP4) was added to the cells at a concentration corresponding to EC20 with on-line recording of fluorescence; in order to account for day-to-day variations in the responsiveness of cells, the EC20 of L-AP4 was determined immediately ahead of each experiment by recording of a full dose-response curve of L-AP4.\nResponses were measured as peak increase in fluorescence minus basal (i.e. fluorescence without addition of L-AP4), normalized to the maximal stimulatory effect obtained with saturating concentrations of L-AP4. Graphs were plotted with the % maximal stimulatory using XLfit, a curve fitting program that iteratively plots the data using Levenburg Marquardt algorithm. The single site competition analysis equation used was y=A+((B−A)/(1+((x/C)D))), where y is the % maximal stimulatory effect, A is the minimum y, B is the maximum y, C is the EC50, x is the log 10 of the concentration of the competing compound and D is the slope of the curve (the Hill Coefficient). From these curves the EC50 (drug concentration at which 50% of the maximal receptor activation was achieved), the Hill coefficient as well as the maximal response in % of the maximal stimulatory effect obtained with saturating concentrations of L-AP4 were calculated (see FIG. 1).\nA depression of the signal observed after addition of the EC20 concentration of L-AP4 was indicative of an inhibitory activity of the test compound. • FIG. 1: Illustration of the experimental outline for mGlu4 PAM Ca2+ mobilization screening assay and the determination of EC50 and % Emax values.", "data": [{"smiles": "O=c1[nH]c2ncsc2c(=O)n1-c1c(F)cc(C#Cc2ccccc2)cc1F", "note": "[Example 31, 6-[2,6-Difluoro-4-(2-phenylethynyl)phenyl]-4H-thiazolo[4,5-d]pyrimidine-5,7-dione]", "values": [{"measurement": "Eff. (%)", "result": 85, "unit": "%"}]}, {"smiles": "Cn1c(=O)n(-c2c(F)cc(C#Cc3ccccc3)cc2F)c(=O)c2scnc21", "note": "[Example 32, 6-[2,6-Difluoro-4-(2-phenylethynyl)phenyl]-4-methyl-thiazolo[4,5-d]pyrimidine-5,7-dione]", "values": [{"measurement": "EC50", "result": 33, "unit": "nM"}, {"measurement": "Eff. (%)", "result": 104, "unit": "%"}]}, {"smiles": "Cn1cc2c(n1)c(=O)n(-c1c(F)cc(C#Cc3ccccc3)cc1F)c(=O)n2C", "note": "[Example 33, 6-[2,6-Difluoro-4-(2-phenylethynyl)phenyl]-2,4-dimethyl-pyrazolo[4,3-d]pyrimidine-5,7-dione]", "values": [{"measurement": "EC50", "result": 47, "unit": "nM"}, {"measurement": "Eff. (%)", "result": 86, "unit": "%"}]}, {"smiles": "Cn1ncc2c1c(=O)n(-c1c(F)cc(C#Cc3ccccc3)cc1F)c(=O)n2C", "note": "[Example 34, 6-[2,6-Difluoro-4-(2-phenylethynyl)phenyl]-1,4-dimethyl-pyrazolo[4,3-d]pyrimidine-5,7-dione]", "values": [{"measurement": "EC50", "result": 74, "unit": "nM"}, {"measurement": "Eff. (%)", "result": 85, "unit": "%"}]}, {"smiles": "CC(C)n1c(=O)n(-c2c(F)cc(C#Cc3ccccc3)cc2F)c(=O)c2nn(C)cc21", "note": "[Example 35, 6-[2,6-Difluoro-4-(2-phenylethynyl)phenyl]-4-isopropyl-2-methyl-pyrazolo[4,3-d]pyrimidine-5,7-dione]", "values": [{"measurement": "EC50", "result": 30, "unit": "nM"}, {"measurement": "Eff. (%)", "result": 89, "unit": "%"}]}, {"smiles": "CC(C)n1c(=O)n(-c2c(F)cc(C#Cc3ccccc3)cc2F)c(=O)c2c1cnn2C", "note": "[Example 36, 6-[2,6-Difluoro-4-(2-phenylethynyl)phenyl]-4-isopropyl-1-methyl-pyrazolo[4,3-d]pyrimidine-5,7-dione]", "values": [{"measurement": "EC50", "result": 155, "unit": "nM"}, {"measurement": "Eff. (%)", "result": 89, "unit": "%"}]}, {"smiles": "CC(C)n1c(=O)n(-c2c(F)cc(C#Cc3ccccc3)cc2F)c(=O)c2cccnc21", "note": "[Example 37, 3-[2,6-Difluoro-4-(2-phenylethynyl)phenyl]-1-isopropyl-pyrido[2,3-d]pyrimidine-2,4-dione]", "values": [{"measurement": "EC50", "result": 88, "unit": "nM"}, {"measurement": "Eff. (%)", "result": 73, "unit": "%"}]}, {"smiles": "Cc1ccnc2c(=O)n(-c3c(F)cc(C#Cc4ccccc4)cc3F)c(=O)n(C)c12", "note": "[Example 38, 3-[2,6-Difluoro-4-(2-phenylethynyl)phenyl]-1,8-dimethyl-pyrido[3,2-d]pyrimidine-2,4-dione]", "values": [{"measurement": "EC50", "result": 108, "unit": "nM"}, {"measurement": "Eff. (%)", "result": 108, "unit": "%"}]}, {"smiles": "Cn1c(=O)n(-c2c(F)cc(C#Cc3ccccc3)cc2F)c(=O)c2nsnc21", "note": "[Example 39, 6-[2,6-Difluoro-4-(2-phenylethynyl)phenyl]-4-methyl-[1,2,5]thiadiazolo[3,4-d]pyrimidine-5,7-dione]", "values": [{"measurement": "EC50", "result": 17, "unit": "nM"}, {"measurement": "Eff. (%)", "result": 107, "unit": "%"}]}, {"smiles": "CC(C)n1c(=O)n(-c2c(F)cc(C#Cc3ccccc3)cc2F)c(=O)c2nsnc21", "note": "[Example 40, 6-[2,6-Difluoro-4-(2-phenylethynyl)phenyl]-4-isopropyl-[1,2,5]thiadiazolo[3,4-d]pyrimidine-5,7-dione]", "values": [{"measurement": "EC50", "result": 23, "unit": "nM"}, {"measurement": "Eff. (%)", "result": 104, "unit": "%"}]}, {"smiles": "Cc1cccc2c1c(=O)n(-c1ccc(C#Cc3ccccc3)cc1Cl)c(=O)n2C", "note": "[Example 41, 3-[2-Chloro-4-(2-phenylethynyl)phenyl]-1,5-dimethyl-quinazoline-2,4-dione]", "values": [{"measurement": "EC50", "result": 231, "unit": "nM"}, {"measurement": "Eff. (%)", "result": 98, "unit": "%"}]}, {"smiles": "CC(C)n1c(=O)n(-c2c(F)cc(C#Cc3cccnc3)cc2Cl)c(=O)c2ccccc21", "note": "[Example 42, 3-[2-Chloro-6-fluoro-4-[2-(3-pyridyl)ethynyl]phenyl]-1-isopropyl-quinazoline-2,4-dione]", "values": [{"measurement": "EC50", "result": 83, "unit": "nM"}, {"measurement": "Eff. (%)", "result": 80, "unit": "%"}]}, {"smiles": "Cc1cccc2c(=O)n(-c3c(F)cc(C#Cc4cccnc4)cc3Cl)c(=O)n(C)c12", "note": "[Example 43, 3-[2-Chloro-6-fluoro-4-[2-(3-pyridyl)ethynyl]phenyl]-1,8-dimethyl-quinazoline-2,4-dione]", "values": [{"measurement": "EC50", "result": 74, "unit": "nM"}, {"measurement": "Eff. (%)", "result": 107, "unit": "%"}]}, {"smiles": "Cn1c(=O)n(-c2ncc(C#Cc3ccccc3)cc2Cl)c(=O)c2ccccc21", "note": "[Example 44, 3-[3-Chloro-5-(2-phenylethynyl)-2-pyridyl]-1-methyl-quinazoline-2,4-dione]", "values": [{"measurement": "EC50", "result": 372, "unit": "nM"}, {"measurement": "Eff. (%)", "result": 180, "unit": "%"}]}, {"smiles": "CC(C)n1c(=O)n(-c2ncc(C#Cc3ccccc3)cc2Cl)c(=O)c2ccccc21", "note": "[Example 45, 3-[3-Chloro-5-(2-phenylethynyl)-2-pyridyl]-1-isopropyl-quinazoline-2,4-dione]", "values": [{"measurement": "EC50", "result": 137, "unit": "nM"}, {"measurement": "Eff. (%)", "result": 92, "unit": "%"}]}, {"smiles": "Cc1cccc2c(=O)n(-c3ncc(C#Cc4ccccc4)cc3Cl)c(=O)n(C)c12", "note": "[Example 46, 3-[3-Chloro-5-(2-phenylethynyl)-2-pyridyl]-1,8-dimethyl-quinazoline-2,4-dione]", "values": [{"measurement": "EC50", "result": 141, "unit": "nM"}, {"measurement": "Eff. (%)", "result": 113, "unit": "%"}]}, {"smiles": "O=c1c2cccc3c2n(c(=O)n1-c1ncc(C#Cc2ccccc2)cc1Cl)CC3", "note": "[Example 47, 2-(3-Chloro-5-(phenylethynyl)pyridin-2-yl)-5,6-dihydro-1H-pyrrolo[3,2,1-ij]quinazoline-1,3(2H)-dione]", "values": [{"measurement": "EC50", "result": 187, "unit": "nM"}, {"measurement": "Eff. (%)", "result": 110, "unit": "%"}]}, {"smiles": "Cn1c(=O)n(-c2ncc(C#Cc3ccccc3)cc2C(F)(F)F)c(=O)c2ccccc21", "note": "[Example 48, 1-Methyl-3-[5-(2-phenylethynyl)-3-(trifluoromethyl)-2-pyridyl]quinazoline-2,4-dione]", "values": [{"measurement": "EC50", "result": 175, "unit": "nM"}, {"measurement": "Eff. (%)", "result": 95, "unit": "%"}]}, {"smiles": "Cc1cccc2c(=O)n(-c3ncc(C#Cc4ccccc4)cc3F)c(=O)n(C)c12", "note": "[Example 49, 3-[3-Fluoro-5-(2-phenylethynyl)-2-pyridyl]-1,8-dimethyl-quinazoline-2,4-dione]", "values": [{"measurement": "EC50", "result": 302, "unit": "nM"}, {"measurement": "Eff. (%)", "result": 111, "unit": "%"}]}, {"smiles": "COCCn1c(=O)n(-c2ccc(C#Cc3ccccc3)cc2Cl)c(=O)c2ccccc21", "note": "[Example 50, 3-[2-Chloro-4-(2-phenylethynyl)phenyl]-1-(2-methoxyethyl)quinazoline-2,4-dione]", "values": [{"measurement": "EC50", "result": 499, "unit": "nM"}, {"measurement": "Eff. (%)", "result": 110, "unit": "%"}]}, {"smiles": "Cn1c(=O)n(-c2ccc(C#Cc3ccccc3)cc2Cl)c(=O)c2sc(N3CCOCC3)nc21", "note": "[Example 51, 6-[2-Chloro-4-(2-phenylethynyl)phenyl]-4-methyl-2-morpholino-thiazolo[4,5-d]pyrimidine-5,7-dione]", "values": [{"measurement": "EC50", "result": 164, "unit": "nM"}, {"measurement": "Eff. (%)", "result": 127, "unit": "%"}]}, {"smiles": "Cn1c(=O)n(-c2ccc(C#Cc3ccccc3)cc2Cl)c(=O)c2scnc21", "note": "[Example 52, 6-(2-Chloro-4-phenylethynyl-phenyl)-4-methyl-4H-thiazolo[4,5-d]pyrimidine-5,7-dione]", "values": [{"measurement": "EC50", "result": 200, "unit": "nM"}, {"measurement": "Eff. (%)", "result": 110, "unit": "%"}]}, {"smiles": "O=c1c2ccccc2n(C2CCC2)c(=O)n1-c1ccc(C#Cc2ccccc2)cc1Cl", "note": "[Example 53, 3-[2-Chloro-4-(2-phenylethynyl)phenyl]-1-cyclobutyl-quinazoline-2,4-dione]", "values": [{"measurement": "EC50", "result": 102, "unit": "nM"}, {"measurement": "Eff. (%)", "result": 123, "unit": "%"}]}, {"smiles": "CC(C)c1cccc2c(=O)n(-c3ccc(C#Cc4ccccc4)cc3Cl)c(=O)n(C)c12", "note": "[Example 54, 3-[2-Chloro-4-(2-phenylethynyl)phenyl]-8-isopropyl-1-methyl-quinazoline-2,4-dione]", "values": [{"measurement": "EC50", "result": 179, "unit": "nM"}, {"measurement": "Eff. (%)", "result": 97, "unit": "%"}]}, {"smiles": "CC(C)n1c(=O)n(-c2ccc(C#Cc3ccccc3)cn2)c(=O)c2ccccc21", "note": "[Example 55, 1-Isopropyl-3-[5-(2-phenylethynyl)-2-pyridyl]quinazoline-2,4-dione]", "values": [{"measurement": "EC50", "result": 766, "unit": "nM"}, {"measurement": "Eff. (%)", "result": 123, "unit": "%"}]}, {"smiles": "CC(C)n1c(=O)n(-c2ncc(C#Cc3ccccc3)cc2F)c(=O)c2nn(C)cc21", "note": "[Example 56, 6-[3-Fluoro-5-(2-phenylethynyl)-2-pyridyl]-4-isopropyl-2-methyl-pyrazolo[4,3-d]pyrimidine-5,7-dione]", "values": [{"measurement": "EC50", "result": 121, "unit": "nM"}, {"measurement": "Eff. (%)", "result": 120, "unit": "%"}]}, {"smiles": "CC(C)n1c(=O)n(-c2c(F)cc(C#Cc3cccnc3)cc2F)c(=O)c2nn(C)cc21", "note": "[Example 57, 6-[2,6-Difluoro-4-[2-(3-pyridyl)ethynyl]phenyl]-4-isopropyl-2-methyl-pyrazolo[4,3-d]pyrimidine-5,7-dione]", "values": [{"measurement": "EC50", "result": 65, "unit": "nM"}, {"measurement": "Eff. (%)", "result": 134, "unit": "%"}]}, {"smiles": "CC(C)n1c(=O)n(-c2c(F)cc(C#Cc3cccnc3)cc2Cl)c(=O)c2nn(C)cc21", "note": "[Example 58, 6-[2-Chloro-6-fluoro-4-[2-(3-pyridyl)ethynyl]phenyl]-4-isopropyl-2-methyl-pyrazolo[4,3-d]pyrimidine-5,7-dione]", "values": [{"measurement": "EC50", "result": 37, "unit": "nM"}, {"measurement": "Eff. (%)", "result": 120, "unit": "%"}]}]}
